Patent publication US7759373B2, “Large conductance calcium-activated K channel opener” (Mitsubishi Tanabe Pharma Corporation, priority 2001, dated 2010)
Counter-ions that a name gives are not always drawn.

Row | Compound | melting point
1 | Fc1cccc(-c2ncc(-c3ccccc3)[nH]2)c1 (as salt: HCl) [Preparation example 41] | 250 to 255 °C
2 | CCOC(=O)Cc1nc(-c2ccc3ncccc3c2)oc1-c1ccsc1 [Preparation Example 411] | 130 to 133 °C
3 | CCc1nc(-c2ccc(C)nc2)[nH]c1-c1ccccc1 (as salt: HCl) [Preparation example 28] | 248 to 251 °C
4 | NC(=O)Cc1nc(-c2ccc(F)cc2)[nH]c1-c1ccsc1 [Preparation example 44] | 200 to 202 °C (dec.)
5 | CCOC(=O)Cc1nc(-c2cnc3occc3c2)oc1-c1ccc(Cl)s1 [Preparation Example 429] | 145 to 146 °C
6 | CCCc1nc(-c2cncc(C)c2)[nH]c1-c1cccs1 (as salt: HCl) [Preparation example 7] | 183 to 185 °C
7 | OCc1nc(-c2ccc(F)cc2)[nH]c1-c1ccccc1 [Preparation example 117] | 240 to 243 °C
8 | O=C(O)Cc1nc(-c2ccc(F)cc2)oc1-c1cccs1 [Preparation Example 189] | 208 to 209 °C
9 | CCc1nc(-c2ccc(F)cc2)[nH]c1-c1cncs1 (as salt: HCl) [Preparation example 86] | 254 to 256 °C
10 | CCCc1nc(-c2ccncc2)[nH]c1-c1cccs1 (as salt: HCl) [Preparation example 6] | 275 to 280 °C
11 | C[S+]([O-])Cc1nc(-c2cccc(F)c2)[nH]c1-c1ccccc1 (stereo not drawn) (as salt: HCl) [Preparation example 136] | 198 to 200 °C
12 | C[S+]([O-])Cc1[nH]c(-c2ccc(F)cc2)nc1-c1ccccc1 (stereo not drawn) (as salt: HCl) [Preparation example 639] | 203 to 204 °C
13 | CCCc1nc(-c2ccc(F)cc2)[nH]c1-c1ccccc1C(N)=O (as salt: HCl) [Preparation example 101] | 186 to 189 °C
14 | CCc1nc(-c2ccc(F)cc2)[nH]c1-c1nccs1 (as salt: HCl) [Preparation example 51] | 215 to 218 °C
15 | O=CNc1[nH]c(-c2ccc(F)cc2)nc1-c1ccccc1 [Preparation example 105, 5-formylamino-2-(4-fluorophenyl)-4-phenylimidazole] | 245 to 247 °C
16 | COc1ccc(-c2nc(CC(=O)O)c(-c3ccsc3)o2)cc1 [Preparation Example 200] | 198 to 199 °C
17 | COCc1nc(-c2cccc(F)c2)[nH]c1-c1ccccc1 (as salt: HCl) [Preparation example 123] | 185 to 188 °C
18 | CCOC(=O)Cc1nc(-c2ccc(Cl)cc2)oc1-c1ccco1 [Preparation Example 191] | 109 to 111 °C
19 | CCCc1nc(-c2ccc(F)cc2)[nH]c1-c1ccccc1 (as salt: HCl) [Preparation example 88] | 224 to 226 °C
20 | CCOC(=O)Cc1nc(-c2cc3ccccc3s2)oc1-c1ccsc1 [Preparation Example 408] | 155 to 156.5 °C
21 | CCCc1nc(-c2ccc[nH]2)[nH]c1-c1ccccc1 (as salt: HCl) [Preparation example 35] | 220 to 222 °C
22 | CCOC(=O)Cc1nc(-c2ccc(OC)c(C)c2)oc1-c1ccsc1 [Preparation Example 410] | 84 to 86 °C
23 | CCOC(=O)Cc1nc(-c2ccc(C)cc2)oc1-c1cccs1 [Preparation Example 196] | 125 to 127 °C
24 | CCc1nc(-c2csc(Cl)c2)[nH]c1-c1cccnc1 (as salt: HCl) [Preparation example 55] | 205 to 207 °C

Row | Compound | melting point
25 | CCCc1nc(-c2ccc(N(C)C)cc2)[nH]c1-c1cccs1 (as salt: HCl) [Preparation example 2] | 170 to 172 °C
26 | CCCc1nc(-c2cc(Cl)cs2)[nH]c1-c1ccccc1 (as salt: HCl) [Preparation example 40] | 188 to 190 °C
27 | O=C(O)Cc1nc(-c2ccc(F)cc2)oc1-c1ccccc1 (as salt: Na) [Preparation Example 153] | > 300 °C
28 | CCOC(=O)Cc1nc(-c2ccc(SC)cc2)oc1-c1ccsc1 [Preparation Example 409] | 77 to 78 °C
29 | COCc1nc(-c2ccc(F)cc2)[nH]c1-c1ccccc1 (as salt: HCl) [Preparation example 121] | 204 to 207 °C
30 | CCCc1nc(-c2csc(Cl)c2)[nH]c1-c1ccccc1 (as salt: HCl) [Preparation example 34] | 194 to 196 °C
31 | CCc1[nH]c(-c2ccc(C)nc2)nc1-c1cccnc1.Cl.Cl.Cl | 270 to 273 °C (dec.)
32 | O=CCNc1[nH]c(-c2ccc(F)cc2)nc1-c1ccccc1 [Preparation example 106, 5-formylmethylamino-2-(4-fluorophenyl)-4-phenyl-imidazole] | 256 to 258 °C
33 | OCc1nc(-c2ccc(F)cc2)[nH]c1-c1cccnc1 [Preparation example 113] | 225 to 228 °C
34 | CCCc1nc(-c2ccc([N+](=O)[O-])cc2)[nH]c1-c1cccs1 (as salt: HCl) [Preparation example 9] | 278 to 281 °C
35 | OCCc1[nH]c(-c2ccc(Cl)s2)nc1-c1cccnc1 (as salt: hydrochloride) [Preparation example 146, 2-(5-chloro-thiophen-2-yl)-5-hydroxyethyl-4-(3-pyridyl)imidazole] | 179 to 180 °C
36 | CCCc1nc(-c2ccc(F)cc2)[nH]c1-c1ccc(SC)cc1 (as salt: HCl) [Preparation example 89] | 174 to 176 °C
37 | CCCc1nc(-c2ccc(F)cc2)[nH]c1-c1cccc(OC)c1 (as salt: HCl) [Preparation example 96] | 120 to 122 °C
38 | CSCc1nc(-c2ccc(C#N)cc2)[nH]c1-c1ccccc1 (as salt: HCl) [Preparation example 132] | 256 to 259 °C
39 | CCCc1nc(-c2ccc3ccccc3c2)[nH]c1-c1ccccc1 (as salt: HCl) [Preparation example 32] | 189 to 190 °C
40 | CCc1nc(-c2ccc(F)cc2)[nH]c1-c1ncccn1 (as salt: HCl) [Preparation example 50] | 190 to 192 °C
41 | CCc1nc(-c2ccccc2C(N)=O)[nH]c1-c1cccnc1 (as salt: HCl) [Preparation example 18] | 250 to 253 °C
42 | CCc1nc(-c2cccs2)[nH]c1-c1cccnc1 (as salt: HCl) [Preparation example 20] | 215 to 217 °C
43 | CCCc1nc(-c2ccsc2)[nH]c1-c1ccccc1 (as salt: HCl) [Preparation example 33] | 215 to 217 °C
44 | Cc1nc(-c2csc(Cl)c2)[nH]c1-c1cccnc1 (as salt: HCl) [Preparation example 54] | 198 to 201 °C
45 | CCCc1nc(-c2ccc(C#N)cc2)[nH]c1-c1ccccc1 (as salt: HCl) [Preparation example 31] | 258 to 260 °C
46 | Cc1ccc(-c2nc(CO)c(-c3cccnc3)[nH]2)cn1 (as salt: HCl) [Preparation example 114] | 266 to 269 °C
47 | CCOC(=O)Cc1nc(-c2ccc(OC)cc2)oc1-c1cccs1 [Preparation Example 154] | 105 to 107 °C
48 | O=C(O)Cc1nc(-c2ccc(F)cc2)oc1-c1ccsc1 [Preparation Example 618] | 207 to 209 °C
